# In PubChem BioAssay AID2305 (GlaxoSmithKline (GSK), 2010):
# Tested on: P. falciparum 3D7 growth, pLDH absorbance
# Experiment: P. falciparum 3D7 growth inhibition, dose response, strain 3D7 (AID 2305)
row,SMILES,IC50 [nM]
1,CCOc1cc(C)ccc1N(C1CCN(CCCCNC(=O)c2ccc(-c3ccc(C(F)(F)F)cc3)cc2)CC1)S(=O)(=O)c1ccccc1,1020
2,COc1cc(-n2c(CN3CCCC3)nc3cc(-c4ccc(Cl)cc4)sc3c2=O)ccc1OCCN1CCCC1,1040
3,COc1cccc(COCC(O)CN(CCc2ccccn2)C(=O)c2ccccc2F)c1 (stereo not given),820
4,CC1(C)N=C(N)N=C(N)N1OCCCNC(=O)c1ccc(C(=O)NCCCON2C(N)=NC(N)=NC2(C)C)cc1,20
5,CCCC(C)n1ccc2c3c(N)nc(N)nc3ccc21 (stereo not given),50
6,O=C(Cc1cnc[nH]1)Nc1cccc(-c2cccc(-c3nc4ccc(C(F)(F)F)cc4[nH]3)c2)c1,230
7,CCCCCCNC(=O)C1Cc2c([nH]c3ccc(C)cc23)C2(CCN(CCc3ccccc3)CC2)N1 (stereo not given),1270
8,CCc1cc2c3c(N)nc(N)nc3ccc2n1CC,10
9,COCCCNC(=O)c1ccc(O)c(-c2cc(Cl)cc(Cl)c2)c1,920
10,CCC(CC)C(CC(=O)NC(C)(C)CCc1ccccc1OC)Nc1ccc(C#N)c2ccccc12 (stereo not given),800
11,CN1CCC(N2CCN(Cc3ccc(-c4cccc(-c5nc6ccccc6[nH]5)c4)cc3)CC2)CC1,140
12,COc1cccc(C=CC(=O)NC2CCC(CN3CCC(c4c[nH]c5ccccc45)CC3)CC2)c1OC (stereo not given),740
13,Nc1ncc(-c2ccc(F)cc2)c2ccc(-c3cccc(F)c3)cc12,230
14,COc1ccccc1C1CCN(C2CCC(NC(=O)c3cc4cc(C(C)C)ccc4[nH]3)CC2)CC1 (stereo not given),850
15,CC(C)C(=O)NC(c1ccc(N(C)C)cc1)c1cc(Cl)c2cccnc2c1O (stereo not given),860
16,Nc1nccc2ccc(OC3CCCCC3)cc12,600
17,CN(C(=O)c1snnc1-c1ccccc1)C1CCN(CCCCCNC(=O)/C=C/c2ccc(Cl)c(Cl)c2)CC1,190
18,COc1ccc(CCn2c(=N)c(C(=O)NCc3ccccc3)cc3c(=O)n4ccccc4nc32)cc1,750
19,NC(N)=Nc1ccc(OCCCCCOc2ccc(N=C(N)N)c(Cl)c2)cc1Cl,860
20,Nc1cc(C=Cc2ccc([N+](=O)[O-])s2)nc2ccccc12,760
21,CC1Cc2ccccc2N1S(=O)(=O)c1cccc(C(=O)Nc2nc(-c3ccccn3)cs2)c1 (stereo not given),1320
22,CCN(CC)c1ccc(C(=O)Cn2ccc(=N)cc2)cc1,1000
23,C=C(C)CSc1nc2c(c(=O)n1CCc1ccccc1)C1(CCCC1)Cc1ccccc1-2,610
24,Cc1cc(C2CCN(CCCCNC(=O)c3ccc(-c4ccc(C(F)(F)F)cc4)cc3)CC2)c(C)cc1OCC#N,1010
25,c1ccc(Oc2ccc(Nc3ccnc4c(-c5ccccn5)cccc34)cc2)cc1,990

row,SMILES,IC50 [nM]
1,Fc1ccc2nc(-c3cccc(-c4cccc(CN5CCN(c6ccncc6)CC5)c4)c3)[nH]c2c1,150
2,Cc1cc(N2CCNCC2)c2cc(NC(=O)Nc3ccc(Cl)c(Cl)c3)ccc2n1,310
3,Oc1ccc(CCNc2nc(NCCCOc3cccc(CN4CCCCC4)c3Cl)nc(N3CCNCC3)n2)cc1,1370
4,OC(CN1CCN(c2cccc(Cl)c2)CC1)C(c1ccccc1)c1ccccc1 (stereo not given),1150
5,Fc1cccc(Nc2nc(NCCc3ccc(Cl)cc3)nc(Nc3cccc(F)c3)n2)c1,1070
6,COc1cc2c(cc1OC)C(C(=O)c1ccccc1)=NCC2,1090
7,O=C(N[C@@H](Cc1ccccc1)[C@H](O)CNCCC(F)(F)F)c1cccc(OCC2CC2)c1,620
8,CCCc1c(C(=O)NC2CCC(CN3CCC(c4c[nH]c5ccccc45)CC3)CC2)cnn1-c1c(Cl)cc(Cl)cc1Cl (stereo not given),820
9,Clc1cccc(CNC2CCN(CC3CCCCC3)CC2)c1,910
10,CN(C)CCOc1cc(NC(=O)c2ccc(-c3ccc(Cl)cc3Cl)cc2)ccc1-c1ccccc1,910
11,CCOc1ccc(C2CCN(CCCCNC(=O)c3ccc(NC(=O)c4ccc(Cl)cc4)cc3)CC2)c(Cl)c1,730
12,Cn1nc(-c2ccc(Cl)cc2)c2cc(C(=O)NCCN3CCOCC3)sc21,720
13,COc1cc2nc(NCCn3cccn3)nc(NCCc3ccccc3)c2cc1OC,280
14,Cc1cccc2[nH]c(-c3cccc(-c4ccc(NC(=O)Nc5cccc(C#N)c5)cc4)c3)nc12,190
15,COc1ccc(C(=O)Nc2ccc(-c3nc4ccc(C)cc4[nH]3)cc2)cc1OC,760
16,Cc1cc(Br)cnc1CCCCNc1cc(=O)c2ccccc2[nH]1,1160
17,O=C(NCCCN1CCN(c2cccc(Cl)c2)CC1)c1ccc(-c2nc3cc(Cl)c(Cl)cc3[nH]2)c(F)c1,830
18,COc1ccc(C2C(C(=O)Nc3cc(C)ccc3OC)c3ccccc3C(=O)N2C)cc1 (stereo not given),980
19,N#CCSc1nnc(-c2ccccc2)c2ccccc12,720
20,Cc1ccc(NC(=O)N2CCCN(CCCCCNC(=O)/C=C/c3ccc(Cl)c(Cl)c3)CC2)cc1,760
21,N#CCCN1CCN(Cc2ccc(-c3ccc(-c4nc5ccc(F)cc5[nH]4)s3)cc2)CC1,660
22,O=c1c2ccccc2[nH]c2cc(Cl)ccc12,870
23,CC(C)(O)CC(C)(C)c1cc(Cl)ccc1O,450
24,CNC(=O)c1ccc2[nH]cc(C3CCN(CC4CCN(C(=O)/C=C/c5ccc(Cl)c(Cl)c5)CC4)CC3)c2c1,1520
25,Cc1c(Cc2ccccc2Cl)cnc2nc(N)nc(N)c12,10
